Numbered stars: 1 amine (or outer) side, 2 acyl side, 3 side chain; on linkers, the order of the positions; unused ones are H or OH. Square brackets hold non-standard residues; d marks the D form. Peptide text beside a SMILES is read from it. * marks the point of attachment. Acetyl(1-adamantyl) = O=C(CC12CC3CC(CC(C3)C1)C2)*; Cyclohexylacetyl(1-SH) = O=C(CC1(S)CCCCC1)*; Ethylenediamine = C(CN[*:2])N[*:1]; Orn = NCCC[C@H](N)C(=O)O; Abu = CC[C@H](N)C(=O)O; X1 = CCC(S)(CC)CC(=O)*; Propionyl = CCC(=O)*
What was measured:
[1] = system: antidiuretic response to arginine vasopressin; parameters: species or system rats; details: rat, in vivo
Description: Activity as antidiuretic agonists was determined by intravenous injection of the compounds being evaluated in ethanol-anesthesized water-loaded rats in accordance with Sawyer, Endocrinology, vol. 63 (1958) at 694. Antagonism of the antidiuretic response to subsequent injections of arginine vasopressin was tested by the method of Sawyer et al., Science, vol. 212 (1981) at 49. Antagonistic potencies were determined and expressed as "effective doses" and pA2 values. The "effective dose" is defined as the dose (in nanomoles per kilogram) that reduces the response seen from 2x units of agonist injected 20 min after the dose of antagonist to the response with 1x units of agonist. Estimated in vivo "pA2 " values represent the negative logarithms of the effective doses, divided by the estimated volume of distribution (67 ml/kg).

[2] = system: vasopressor response to arginine vasopressin; details: in vivo
Description: Antagonism to the vasopressor response was estimated in accordance with […] et al., J. Med. Chem., vol. 17 (1974) at 969. The values are expressed as pA2 values, defined as in Schild et al., Br. J. Pharmacol., vol. 2 (1947) at 189. Antagonistic potencies were determined and expressed as "effective doses" and pA2 values. The "effective dose" is defined as the dose (in nanomoles per kilogram) that reduces the response seen from 2x units of agonist injected 20 min after the dose of antagonist to the response with 1x units of agonist. Estimated in vivo "pA2 " values represent the negative logarithms of the effective doses, divided by the estimated volume of distribution (67 ml/kg).

| Compound | Antiantidiuretic pA2 [1] | Antivasopressor pA2 [2] |
| --- | --- | --- |
| CCOc1ccc(C[C@@H](NC(=O)CC23CC4CC(CC(C4)C2)C3)C(=O)N[C@@H](Cc2ccccc2)C(=O)N[C@H](C(=O)N[C@@H](CC(N)=O)C(=O)N[C@@H](CCCCN)C(=O)N2CCC[C@H]2C(=O)N[C@@H](CCCNC(=N)N)C(N)=O)C(C)C)cc1 [(1-adamantyl)acetyl-D-(O-ethyl)-tyrosyl-phenylalanyl-valyl-asaparaginyl-lysyl-prolyl-argininamide] ({Acetyl(1-adamantyl)}-[dY](Et)FVNKPR-NH2) | 7.81 ± 0.08 | 8.02 ± 0.06 |
| CCOc1ccc(C[C@@H](NC(=O)CC23CC4CC(CC(C4)C2)C3)C(=O)N[C@@H](Cc2ccccc2)C(=O)N[C@H](C(=O)N[C@@H](CC(N)=O)C(=O)N[C@@H](CC)C(=O)N2CCC[C@H]2C(=O)N[C@H](CCCNC(=N)N)C(=O)N[C@@H](CCCNC(=N)N)C(N)=O)C(C)C)cc1 [(1-adamantyl)acetyl-D-(O-ethyl)tyrosyl-phenylalanyl-valyl-asparaginyl-(2-amino)butyryl-prolyl-D-arginyl-argininamide] ({Acetyl(1-adamantyl)}-[dY](Et)FVN[Abu]P[dR]R-NH2) | 7.85 ± 0.08 | 7.49 ± 0.06 |
| CCOc1ccc(C[C@@H](NC(=O)CC23CC4CC(CC(C4)C2)C3)C(=O)N[C@@H](Cc2ccccc2)C(=O)N[C@H](C(=O)N[C@@H](CC(N)=O)C(=O)N[C@@H](CC)C(=O)N2CCC[C@H]2C(=O)N[C@@H](CCCNC(=N)N)C(N)=O)C(C)C)cc1 [(1-adamantyl)acetyl-D-(O-ethyl)tyrosyl-phenylalanyl-valyl-asparaginyl-(2-amino)butyryl-prolyl-argininamide] ({Acetyl(1-adamantyl)}-[dY](Et)FVN[Abu]PR-NH2) | 7.20 ± 0.04 | 7.43 ± 0.06 |
| CCOc1ccc(C[C@@H](NC(=O)CC23CC4CC(CC(C4)C2)C3)C(=O)N[C@@H](Cc2ccccc2)C(=O)N[C@H](C(=O)N[C@@H](CC(N)=O)C(=O)N[C@@H](CC)C(=O)N2CCC[C@H]2C(=O)N[C@@H](CCCNC(=N)N)C(=O)NCCN)C(C)C)cc1 [(1-adamantyl)acetyl-D-(O-ethyl)tyrosyl-phenylalanyl-valyl-asparaginyl-(2-amino)butyryl-prolyl-arginine-N-(2-aminoethyl)amide] ({Acetyl(1-adamantyl)}-[dY](Et)FVN[Abu]PR-Ethylenediamine) | 7.71 ± 0.09 | 7.33 ± 0.09 |
| CCOc1ccc(C[C@@H](NC(=O)CC23CC4CC(CC(C4)C2)C3)C(=O)N[C@@H](Cc2ccccc2)C(=O)N[C@H](C(=O)N[C@@H](CC(N)=O)C(=O)N[C@@H](CC)C(=O)N2CCC[C@H]2C(=O)N[C@@H](CCCNC(=N)N)C(=O)N[C@@H](C)C(N)=O)C(C)C)cc1 [(1-adamantyl)acetyl-D-(O-ethyl)tyrosyl-phenylalanyl-valyl-asparaginyl-(2-amino)butyryl-prolyl-arginyl-alaninamide] ({Acetyl(1-adamantyl)}-[dY](Et)FVN[Abu]PRA-NH2) | 6.55 ± 0.04 | 7.18 ± 0.04 |
| CCOc1ccc(C[C@@H](NC(=O)CC23CC4CC(CC(C4)C2)C3)C(=O)N[C@@H](Cc2ccccc2)C(=O)N[C@H](C(=O)N[C@@H](CC(N)=O)C(=O)N[C@@H](CC)C(=O)N2CCC[C@H]2C(=O)N[C@@H](CCCNC(=N)N)C(=O)N[C@@H](CCCNC(=N)N)C(N)=O)C(C)C)cc1 [(1-adamantyl)acetyl-D-(O-ethyl)tyrosyl-phenylalanyl-valyl-asparaginyl-(2-amino)butyryl-prolyl-arginyl-argininamide] ({Acetyl(1-adamantyl)}-[dY](Et)FVN[Abu]PRR-NH2) | 8.11 ± 0.07 | 7.75 ± 0.07 |
| CCOc1ccc(C[C@@H](NC(=O)CC23CC4CC(CC(C4)C2)C3)C(=O)N[C@@H](Cc2ccccc2)C(=O)N[C@H](C(=O)N[C@@H](CC(N)=O)C(=O)N[C@@H](CC)C(=O)N2CCC[C@H]2C(=O)N[C@@H](CCCNC(=N)N)C(=O)NCC(N)=O)C(C)C)cc1 [(1-adamantyl)acetyl-D-(O-ethyl)tyrosyl-phenylalanyl-valyl-asparaginyl-(2-amino)butyryl-prolyl-arginyl-glycinamide] ({Acetyl(1-adamantyl)}-[dY](Et)FVN[Abu]PRG-NH2) | 7.50 ± 0.02 | 7.10 ± 0.07 |
| CCOc1ccc(C[C@@H](NC(=O)CC23CC4CC(CC(C4)C2)C3)C(=O)N[C@@H](Cc2ccccc2)C(=O)N[C@H](C(=O)N[C@@H](CC(N)=O)C(=O)N[C@@H](CCCNC(=N)N)C(=O)N2CCC[C@H]2C(=O)N[C@@H](CCCNC(=N)N)C(N)=O)C(C)C)cc1 [(1-adamantyl)acetyl-D-(O-ethyl)tyrosyl-phenylalanyl-valyl-asparaginyl-arginyl-prolyl-argininamide] ({Acetyl(1-adamantyl)}-[dY](Et)FVNRPR-NH2) | 7.73 ± 0.08 | 8.01 ± 0.05 |
| CCOc1ccc(C[C@@H](NC(=O)CC23CC4CC(CC(C4)C2)C3)C(=O)N[C@@H](Cc2ccccc2)C(=O)N[C@H](C(=O)N[C@@H](CC(N)=O)C(=O)N[C@@H](CCCN)C(=O)N2CCC[C@H]2C(=O)N[C@@H](CCCNC(=N)N)C(N)=O)C(C)C)cc1 [(1-adamantyl)acetyl-D-(O-ethyl)tyrosyl-phenylalanyl-valyl-asparaginyl-ornithyl-prolyl-argininamide] ({Acetyl(1-adamantyl)}-[dY](Et)FVN[Orn]PR-NH2) | 7.81 ± 0.10 | 7.33 ± 0.06 |
| CCOc1ccc(C[C@@H](NC(=O)CC2(S)CCCCC2)C(=O)N[C@@H](Cc2ccccc2)C(=O)N[C@H](C(=O)N[C@@H](CC(N)=O)C(=O)N[C@@H](CC)C(=O)N2CCC[C@H]2C(=O)N[C@@H](CCCNC(=N)N)C(=O)NCC(N)=O)C(C)C)cc1 [(1-mercaptocyclohexyl)acetyl-D-(O-ethyl)tyrosyl-phenylalanyl-valyl-asparaginyl-(2-amino)butyryl-prolyl-arginyl-glycinamide] ({Cyclohexylacetyl(1-SH)}-[dY](Et)FVN[Abu]PRG-NH2) | 7.42 ± 0.05 | 7.71 ± 0.05 |
| CCOc1ccc(C[C@@H](NC(=O)CC2(S)CCCCC2)C(=O)N[C@@H](Cc2ccccc2)C(=O)N[C@H](C(=O)N[C@@H](CC(N)=O)C(=O)N[C@@H](CS)C(=O)N2CCC[C@H]2C(=O)N[C@@H](CCCNC(=N)N)C(=O)NCC(N)=O)C(C)C)cc1 [(1-mercaptocyclohexyl)acetyl-D-(O-ethyl)tyrosyl-phenylalanyl-valyl-asparaginyl-cysteinyl-prolyl-arginyl-glycinamide] ({Cyclohexylacetyl(1-SH)}-[dY](Et)FVNCPRG-NH2) | 7.05 ± 0.08 | 7.51 ± 0.03 |
| CCOc1ccc(C[C@@H](NC(=O)CC(S)(CC)CC)C(=O)N[C@@H](Cc2ccccc2)C(=O)N[C@H](C(=O)N[C@@H](CC(N)=O)C(=O)N[C@@H](CC)C(=O)N2CCC[C@H]2C(=O)N[C@@H](CCCNC(=N)N)C(=O)NCC(N)=O)C(C)C)cc1 [(3-ethyl-3-mercapto)valeroyl-D-(O-ethyl)tyrosyl-phenylalanyl-valyl-asparaginyl-(2-amino)butyryl-prolyl-arginyl-glycinamide] (X1-[dY](Et)FVN[Abu]PRG-NH2) | 7.09 ± 0.09 | 6.94 ± 0.04 |
| CCOc1ccc(C[C@@H](NC(=O)CC)C(=O)N[C@@H](Cc2ccccc2)C(=O)N[C@H](C(=O)N[C@@H](CC(N)=O)C(=O)N[C@@H](CC)C(=O)N2CCC[C@H]2C(=O)N[C@@H](CCCNC(=N)N)C(=O)N[C@@H](CCCNC(=N)N)C(N)=O)C(C)C)cc1 [propionyl-D-(O-ethyl)tyrosyl-phenylalanyl-valyl-asparaginyl-(2-amino)butyryl-prolyl-arginyl-argininamide] (Propionyl-[dY](Et)FVN[Abu]PRR-NH2) | 7.74 ± 0.07 | 6.71 ± 0.09 |

— US5055448A, “Linear derivatives of arginine vasopressin antagonists” (Medical College of Ohio, priority 1987, dated 1991)
